From ChEMBL document CHEMBL4316588, “Design, Synthesis, and Biological Evaluation of Novel DNA Gyrase-Inhibiting Spiropyrimidinetriones as Potent Antibiotics for Treatment of Infections Caused by Multidrug-Resistant Gram-Positive Bacteria” (J Med Chem, 2019)
≈ marks a conversion by molar mass, not a printed value.

Tests used:
[1] = system: Staphylococcus aureus; experiment: Antibacterial activity against methicillin-sensitive Staphylococcus aureus after 18 to 20 hrs by CLSI-protocol based broth microdilution method; type: functional; details: Staphylococcus aureus; read-out: MIC
[2] = system: Staphylococcus aureus; experiment: Antibacterial activity against methicillin-resistant Staphylococcus aureus after 18 to 20 hrs by CLSI-protocol based broth microdilution method; type: functional
[3] = system: Staphylococcus epidermidis; experiment: Antibacterial activity against methicillin-sensitive Staphylococcus epidermidis after 18 to 20 hrs by CLSI-protocol based broth microdilution method; type: functional
[4] = system: Staphylococcus epidermidis; experiment: Antibacterial activity against methicillin-resistant Staphylococcus epidermidis after 18 to 20 hrs by CLSI-protocol based broth microdilution method; type: functional
[5] = system: Streptococcus pneumoniae; experiment: Antibacterial activity against penicillin-resistant Streptococcus pneumoniae after 18 to 20 hrs by CLSI-protocol based broth microdilution method; type: functional
[6] = system: Streptococcus pyogenes; experiment: Antibacterial activity against Streptococcus pyogenes after 18 to 20 hrs by CLSI-protocol based broth microdilution method; type: functional; details: Streptococcus pyogenes; read-out: MIC
[7] = biological target: DNA topoisomerase 2-alpha (Homo sapiens, UniProt P11388); experiment: Inhibition of human topoisomerase-2alpha using catenated DNA as substrate after 30 mins by ethidium bromide-based gel electrophoresis
[8] = biological target: DNA gyrase (Staphylococcus aureus, UniProt P0A0K8+P20831)
Description: Inhibition of Staphylococcus aureus DNA gyrase supercoiling activity using relaxed pHOT-1 DNA as substrate after 60 mins by ethidium bromide-based gel electrophoresis

[9] = system: Neisseria gonorrhoeae; experiment: Antibacterial activity against Neisseria gonorrhoeae after 18 to 20 hrs by CLSI-protocol based agar microdilution method; type: functional
[10] = biological target: Voltage-gated inwardly rectifying potassium channel KCNH2 (Homo sapiens, UniProt Q12809); experiment: Inhibition of human ERG expressed in CHO cells in at -80 mV holding potential by automated Qpatch clamp assay; type: cell-based
[11] = system: Staphylococcus aureus; experiment: Antibacterial activity against methicillin-sensitive Staphylococcus aureus infected in Kunming mouse dosed subcutaneously at 0.5 and 4.0 hrs postinfection and measured at 7 to 14 days post treatment by Bliss method; type: functional; details: sc
[12] = system: Staphylococcus aureus; experiment: Antibacterial activity against methicillin-resistant Staphylococcus aureus infected in Kunming mouse dosed subcutaneously at 0.5 and 4.0 hrs postinfection and measured at 7 to 14 days post treatment by Bliss method; type: functional; details: sc

Chain of Voltage-gated inwardly rectifying potassium channel KCNH2 (Q12809 whole entry): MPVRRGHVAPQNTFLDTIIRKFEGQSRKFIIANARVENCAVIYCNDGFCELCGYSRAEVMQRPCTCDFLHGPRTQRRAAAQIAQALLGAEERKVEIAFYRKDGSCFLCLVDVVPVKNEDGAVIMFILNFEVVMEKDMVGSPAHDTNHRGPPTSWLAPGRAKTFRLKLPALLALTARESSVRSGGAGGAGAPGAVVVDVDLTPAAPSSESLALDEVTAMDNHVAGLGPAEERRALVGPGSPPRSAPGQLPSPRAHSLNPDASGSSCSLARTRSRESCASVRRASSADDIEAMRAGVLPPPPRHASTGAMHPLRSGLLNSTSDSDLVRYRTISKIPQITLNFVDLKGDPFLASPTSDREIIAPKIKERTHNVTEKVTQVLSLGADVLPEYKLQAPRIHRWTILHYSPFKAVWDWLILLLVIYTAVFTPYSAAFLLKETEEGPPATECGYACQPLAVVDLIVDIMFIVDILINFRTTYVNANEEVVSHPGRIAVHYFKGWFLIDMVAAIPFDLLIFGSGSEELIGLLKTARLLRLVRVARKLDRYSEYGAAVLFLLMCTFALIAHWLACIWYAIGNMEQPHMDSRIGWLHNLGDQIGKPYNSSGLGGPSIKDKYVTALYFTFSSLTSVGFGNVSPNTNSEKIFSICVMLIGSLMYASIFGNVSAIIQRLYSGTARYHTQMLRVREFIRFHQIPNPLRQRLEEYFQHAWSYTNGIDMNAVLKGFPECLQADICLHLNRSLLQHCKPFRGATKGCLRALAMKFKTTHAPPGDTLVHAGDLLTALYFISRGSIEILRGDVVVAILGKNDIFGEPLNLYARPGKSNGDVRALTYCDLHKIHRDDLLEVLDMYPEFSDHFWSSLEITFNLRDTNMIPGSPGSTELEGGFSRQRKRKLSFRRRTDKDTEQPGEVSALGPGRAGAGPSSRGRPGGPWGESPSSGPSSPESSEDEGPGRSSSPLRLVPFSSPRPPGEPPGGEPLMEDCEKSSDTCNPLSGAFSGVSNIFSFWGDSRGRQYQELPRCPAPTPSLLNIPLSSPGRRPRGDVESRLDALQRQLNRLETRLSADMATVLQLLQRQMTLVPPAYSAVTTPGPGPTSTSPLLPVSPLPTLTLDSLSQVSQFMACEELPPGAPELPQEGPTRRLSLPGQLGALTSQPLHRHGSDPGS
Chain of DNA gyrase (P0A0K8 whole entry): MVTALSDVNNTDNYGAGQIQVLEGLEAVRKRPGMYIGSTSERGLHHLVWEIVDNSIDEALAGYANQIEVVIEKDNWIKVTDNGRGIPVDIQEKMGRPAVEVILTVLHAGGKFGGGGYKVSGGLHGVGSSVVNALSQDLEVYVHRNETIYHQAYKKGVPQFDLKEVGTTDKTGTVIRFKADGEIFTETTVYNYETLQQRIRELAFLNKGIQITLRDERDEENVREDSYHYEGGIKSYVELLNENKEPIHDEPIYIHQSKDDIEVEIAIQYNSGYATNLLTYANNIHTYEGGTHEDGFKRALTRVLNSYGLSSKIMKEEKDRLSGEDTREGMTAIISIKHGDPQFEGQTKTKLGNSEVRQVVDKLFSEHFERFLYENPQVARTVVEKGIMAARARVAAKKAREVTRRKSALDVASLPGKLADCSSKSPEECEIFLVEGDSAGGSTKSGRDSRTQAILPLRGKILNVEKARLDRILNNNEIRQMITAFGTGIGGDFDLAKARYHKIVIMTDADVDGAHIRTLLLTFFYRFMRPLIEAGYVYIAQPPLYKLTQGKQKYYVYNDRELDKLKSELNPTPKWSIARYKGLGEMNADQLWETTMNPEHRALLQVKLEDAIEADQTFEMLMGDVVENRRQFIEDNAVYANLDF
Chain of DNA gyrase (P20831 whole entry): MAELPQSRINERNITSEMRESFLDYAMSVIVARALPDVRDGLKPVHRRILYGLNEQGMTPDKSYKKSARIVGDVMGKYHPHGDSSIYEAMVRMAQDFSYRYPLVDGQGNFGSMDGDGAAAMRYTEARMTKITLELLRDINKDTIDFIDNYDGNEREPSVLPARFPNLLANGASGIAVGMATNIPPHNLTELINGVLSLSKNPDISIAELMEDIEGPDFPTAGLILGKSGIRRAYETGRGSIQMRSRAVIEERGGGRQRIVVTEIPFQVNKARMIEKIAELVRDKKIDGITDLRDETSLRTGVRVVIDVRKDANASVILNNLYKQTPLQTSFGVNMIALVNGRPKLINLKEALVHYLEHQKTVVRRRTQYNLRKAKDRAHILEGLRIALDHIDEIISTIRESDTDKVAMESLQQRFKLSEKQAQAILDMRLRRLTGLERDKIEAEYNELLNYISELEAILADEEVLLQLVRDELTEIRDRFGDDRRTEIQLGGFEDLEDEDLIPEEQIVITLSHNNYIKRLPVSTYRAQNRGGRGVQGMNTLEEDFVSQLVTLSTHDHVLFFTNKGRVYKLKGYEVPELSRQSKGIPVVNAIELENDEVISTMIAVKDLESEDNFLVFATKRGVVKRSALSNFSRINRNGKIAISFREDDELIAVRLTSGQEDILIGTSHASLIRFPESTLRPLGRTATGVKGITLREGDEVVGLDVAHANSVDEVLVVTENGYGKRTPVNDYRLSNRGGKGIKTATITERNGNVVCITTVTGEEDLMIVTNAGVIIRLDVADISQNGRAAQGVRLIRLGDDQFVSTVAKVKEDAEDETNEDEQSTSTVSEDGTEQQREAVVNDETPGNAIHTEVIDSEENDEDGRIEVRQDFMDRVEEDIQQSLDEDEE
Chain of DNA topoisomerase 2-alpha (P11388 whole entry): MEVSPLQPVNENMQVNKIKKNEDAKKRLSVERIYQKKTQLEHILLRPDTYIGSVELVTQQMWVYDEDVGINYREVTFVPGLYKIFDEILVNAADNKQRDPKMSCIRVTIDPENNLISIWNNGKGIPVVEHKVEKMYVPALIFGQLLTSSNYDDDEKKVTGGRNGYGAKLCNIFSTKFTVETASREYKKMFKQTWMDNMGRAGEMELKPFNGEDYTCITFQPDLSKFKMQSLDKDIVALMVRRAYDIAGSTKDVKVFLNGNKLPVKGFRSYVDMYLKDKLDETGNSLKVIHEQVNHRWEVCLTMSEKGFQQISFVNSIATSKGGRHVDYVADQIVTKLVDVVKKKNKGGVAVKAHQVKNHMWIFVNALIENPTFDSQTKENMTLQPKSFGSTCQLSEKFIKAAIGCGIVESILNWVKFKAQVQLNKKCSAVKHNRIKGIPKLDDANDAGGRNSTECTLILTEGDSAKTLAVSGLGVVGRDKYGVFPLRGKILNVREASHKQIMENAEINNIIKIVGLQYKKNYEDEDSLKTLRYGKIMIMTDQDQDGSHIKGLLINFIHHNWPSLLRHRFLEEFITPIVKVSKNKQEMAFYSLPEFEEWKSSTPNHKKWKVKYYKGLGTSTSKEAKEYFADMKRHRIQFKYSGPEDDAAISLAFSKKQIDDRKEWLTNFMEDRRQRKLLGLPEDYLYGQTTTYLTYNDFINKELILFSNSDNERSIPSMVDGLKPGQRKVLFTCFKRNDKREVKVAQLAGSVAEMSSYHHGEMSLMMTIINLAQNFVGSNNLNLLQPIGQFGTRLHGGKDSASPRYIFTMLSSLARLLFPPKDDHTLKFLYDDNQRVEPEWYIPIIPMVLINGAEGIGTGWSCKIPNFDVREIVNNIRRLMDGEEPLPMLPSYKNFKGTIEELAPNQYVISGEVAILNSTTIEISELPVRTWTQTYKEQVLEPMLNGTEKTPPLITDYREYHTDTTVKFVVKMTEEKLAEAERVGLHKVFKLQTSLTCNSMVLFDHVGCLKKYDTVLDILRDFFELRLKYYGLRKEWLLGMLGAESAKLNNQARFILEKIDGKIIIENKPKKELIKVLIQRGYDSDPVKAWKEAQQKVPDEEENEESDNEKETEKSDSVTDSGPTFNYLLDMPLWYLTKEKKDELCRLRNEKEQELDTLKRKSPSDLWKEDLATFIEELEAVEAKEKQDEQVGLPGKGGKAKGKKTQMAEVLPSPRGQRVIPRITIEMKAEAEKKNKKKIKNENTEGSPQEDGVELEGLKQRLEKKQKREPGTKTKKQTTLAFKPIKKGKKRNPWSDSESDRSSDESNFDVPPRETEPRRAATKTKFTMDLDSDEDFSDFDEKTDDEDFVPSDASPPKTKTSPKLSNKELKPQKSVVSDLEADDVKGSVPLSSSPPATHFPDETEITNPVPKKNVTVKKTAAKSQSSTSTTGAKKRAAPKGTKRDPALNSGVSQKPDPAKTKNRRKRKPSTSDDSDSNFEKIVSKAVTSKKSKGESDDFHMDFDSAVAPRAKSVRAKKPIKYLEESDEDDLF

C[C@@H]1CN2c3c(cc4c(N5C(=O)SC[C@@H]5C)noc4c3F)CC3(C(=O)NC(=O)NC3=O)[C@H]2[C@H](C)O1
MIC [1]: 0.25 to 0.5 µg/mL (≈ 0.497 to 0.993 µM)
MIC [2]: 0.03 to 0.125 µg/mL (≈ 0.0596 to 0.248 µM)
MIC [3]: 0.03 to 0.125 µg/mL (≈ 0.0596 to 0.248 µM)
MIC [4]: 0.06 to 0.25 µg/mL (≈ 0.119 to 0.497 µM)
MIC [5]: 0.125 to 1 µg/mL (≈ 0.248 to 1.99 µM)
MIC [6]: 0.125 to 0.25 µg/mL (≈ 0.248 to 0.497 µM)
IC50 [7]: > 200 µM
IC50 [8]: 15.6 µM

C[C@@H]1CN2c3c(cc4c(N5CCSC5=O)noc4c3F)CC3(C(=O)NC(=O)NC3=O)[C@H]2[C@H](C)O1
MIC [1]: ≤ 0.03 µg/mL
MIC [2]: < 0.03 µg/mL
MIC [3]: < 0.03 µg/mL
MIC [4]: < 0.03 µg/mL
MIC [5]: ≤ 0.03 µg/mL
MIC [6]: < 0.03 µg/mL
MIC50 [9]: 0.03 µg/mL (≈ 0.0613 µM)
MIC90 [9]: 0.06 µg/mL (≈ 0.123 µM)
IC50 [10]: > 40 µM

CC(=O)NC[C@H]1CN(c2ccc(N3CCOCC3)c(F)c2)C(=O)O1 [LINEZOLID]
ED50 [11]: 4.53 mg/kg
ED50 [12]: 4.83 mg/kg
